{
  "source": "ChEMBL document CHEMBL5715952",
  "about": "(Oncotarget, 2015)",
  "key": {"[1]": {"system": "Bortezomib-resistant ANBL6", "test": "Synergistic antiproliferative activity against human bortezomib-resistant ANBL6 cells assessed as reduction in cell viability at ED90 incubated for 72 hrs in presence of bortezomib by MTS assay", "assay_type": "functional"}, "ANBL-6 [2]": {"system": "ANBL-6", "test": "Synergistic apoptosis activity in wild-type human ANBL-6 cells assessed as late apoptosis at 1600 nM incubated for 72 hrs in the presence of BTZ by annexin V and 7-AAD staining by flow cytometry analysis (Rvb=26 %)", "assay_type": "functional"}, "ANBL-6 [3]": {"system": "ANBL-6", "test": "Synergistic apoptosis activity in wild-type human ANBL-6 cells assessed as early apoptosis at 1600 nM incubated for 72 hrs in the presence of BTZ by annexin V and 7-AAD staining by flow cytometry analysis (Rvb=14 %)", "assay_type": "functional"}, "RPMI-8226": {"system": "RPMI-8226", "test": "Synergistic antiproliferative activity against wild-type human RPMI-8226 cells assessed as reduction in cell viability at ED50 incubated for 72 hrs in presence of bortezomib by MTS assay", "assay_type": "functional"}, "[4]": {"target": "Bromodomain and extra-terminal motif (BET) (Homo sapiens) (UniProt P25440+O60885+Q58F21+Q15059)", "settings": "Bortezomib-resistant ANBL6 cell, dose lower 40.0 nM, dose upper […]"}, "[5]": {"system": "Bortezomib-resistant ANBL6", "test": "Synergistic apoptosis activity in human bortezomib-resistant ANBL6 cells assessed as viable at 1600 nM incubated for 72 hrs in the presence of BTZ by annexin V and 7-AAD staining by flow cytometry analysis (Rvb=80 %)", "assay_type": "functional"}, "[6]": {"test": "Synergistic antiproliferative activity against human melphalan-resistant RPMI-8226 cells assessed as reduction in cell viability at ED50 incubated for 72 hrs in presence of bortezomib by MTS assay", "assay_type": "functional, Melphalan-resistant RPMI-8226 cell"}, "ANBL-6 [7]": {"system": "ANBL-6", "test": "Synergistic antiproliferative activity against wild-type human ANBL-6 cells assessed as reduction in cell viability at ED50 incubated for 72 hrs in presence of bortezomib by MTS assay", "assay_type": "functional"}, "[8]": {"system": "Bortezomib-resistant ANBL6", "test": "Induction of apoptosis in human bortezomib-resistant ANBL6 cells assessed as viable at 160 nM incubated for 72 hrs by annexin V and 7-AAD staining by flow cytometry analysis (Rvb=80 %)", "assay_type": "functional"}, "ANBL-6 [9]": {"system": "ANBL-6", "test": "Synergistic apoptosis activity in wild-type human ANBL-6 cells assessed as early apoptosis at 1600 nM incubated for 24 hrs in the presence of BTZ by annexin V and 7-AAD staining by flow cytometry analysis", "assay_type": "functional"}, "ANBL-6 [10]": {"system": "ANBL-6", "test": "Induction of apoptosis in wild-type human ANBL-6 cells assessed as late apoptosis at 40 nM incubated for 72 hrs by annexin V and 7-AAD staining by flow cytometry analysis (Rvb=26 %)", "assay_type": "functional"}, "[11]": {"test": "Synergistic antiproliferative activity against human melphalan-resistant RPMI-8226 cells assessed as reduction in cell viability at ED90 incubated for 72 hrs in presence of bortezomib by MTS assay", "assay_type": "functional, Melphalan-resistant RPMI-8226 cell"}},
  "note": "The source made the active and inactive calls. The calls are words filed in the database; no cut-off is given here.",
  "data": [
    {"smiles": "Cc1sc2c(c1C)C(c1ccc(Cl)cc1)=N[C@@H](CC(N)=O)c1nnc(C)n1-2", "values": [
      {"measurement": "CI", "setting": "[1]", "value": 0.355},
      {"measurement": "Activity", "setting": "ANBL-6 [2]", "value": 10, "unit": "%"},
      {"measurement": "Activity", "setting": "ANBL-6 [3]", "value": 84, "unit": "%"},
      {"measurement": "CI", "setting": "RPMI-8226", "value": 1.367},
      {"measurement": "inhibition", "setting": "[4]", "value": "Active"},
      {"measurement": "Activity", "setting": "[5]", "value": 23, "unit": "%"},
      {"measurement": "CI", "setting": "[6]", "value": 0.925},
      {"measurement": "CI", "setting": "ANBL-6 [7]", "value": 0.793},
      {"measurement": "Activity", "setting": "[8]", "value": 78, "unit": "%"},
      {"measurement": "CI", "setting": "ANBL-6 [9]", "value": 0.85},
      {"measurement": "Activity", "setting": "ANBL-6 [10]", "value": 28, "unit": "%"},
      {"measurement": "CI", "setting": "[11]", "value": 0.569}
    ]}
  ]
}
